In patent publication US10259810B2, “N-sulfonylated pyrazolo[3,4-b]pyridin-6-carboxamides and method of use” (AbbVie S.à.r.l., priority 2015, dated 2019):
Like-named read-outs stand apart in the source and are kept apart here.

Key:
Format in all cases: cell-based
ΔF508-CFTR [1] = molecular target: T1, ΔF508-CFTR (Homo sapiens, UniProt P13569, DEL508-508); assay: CFTR cell surface levels using HRP-tagged ΔF508-CFTR expressing CFBE cells, intrinsic corrector capacity; set-up: % Activation: concentration or dose not given beside the values; conditions: HRP-tagged ΔF508-CFTR expressing CFBE41o- cells, compound alone (intrinsic corrector capacity), 20 hours at 33° C.; for EC50: read-out: EC50
T1 construct: host or cells: CFBE41o-, doxycycline-inducible
T1 sequence (P13569 with tags, fused parts or gaps DEL508-508): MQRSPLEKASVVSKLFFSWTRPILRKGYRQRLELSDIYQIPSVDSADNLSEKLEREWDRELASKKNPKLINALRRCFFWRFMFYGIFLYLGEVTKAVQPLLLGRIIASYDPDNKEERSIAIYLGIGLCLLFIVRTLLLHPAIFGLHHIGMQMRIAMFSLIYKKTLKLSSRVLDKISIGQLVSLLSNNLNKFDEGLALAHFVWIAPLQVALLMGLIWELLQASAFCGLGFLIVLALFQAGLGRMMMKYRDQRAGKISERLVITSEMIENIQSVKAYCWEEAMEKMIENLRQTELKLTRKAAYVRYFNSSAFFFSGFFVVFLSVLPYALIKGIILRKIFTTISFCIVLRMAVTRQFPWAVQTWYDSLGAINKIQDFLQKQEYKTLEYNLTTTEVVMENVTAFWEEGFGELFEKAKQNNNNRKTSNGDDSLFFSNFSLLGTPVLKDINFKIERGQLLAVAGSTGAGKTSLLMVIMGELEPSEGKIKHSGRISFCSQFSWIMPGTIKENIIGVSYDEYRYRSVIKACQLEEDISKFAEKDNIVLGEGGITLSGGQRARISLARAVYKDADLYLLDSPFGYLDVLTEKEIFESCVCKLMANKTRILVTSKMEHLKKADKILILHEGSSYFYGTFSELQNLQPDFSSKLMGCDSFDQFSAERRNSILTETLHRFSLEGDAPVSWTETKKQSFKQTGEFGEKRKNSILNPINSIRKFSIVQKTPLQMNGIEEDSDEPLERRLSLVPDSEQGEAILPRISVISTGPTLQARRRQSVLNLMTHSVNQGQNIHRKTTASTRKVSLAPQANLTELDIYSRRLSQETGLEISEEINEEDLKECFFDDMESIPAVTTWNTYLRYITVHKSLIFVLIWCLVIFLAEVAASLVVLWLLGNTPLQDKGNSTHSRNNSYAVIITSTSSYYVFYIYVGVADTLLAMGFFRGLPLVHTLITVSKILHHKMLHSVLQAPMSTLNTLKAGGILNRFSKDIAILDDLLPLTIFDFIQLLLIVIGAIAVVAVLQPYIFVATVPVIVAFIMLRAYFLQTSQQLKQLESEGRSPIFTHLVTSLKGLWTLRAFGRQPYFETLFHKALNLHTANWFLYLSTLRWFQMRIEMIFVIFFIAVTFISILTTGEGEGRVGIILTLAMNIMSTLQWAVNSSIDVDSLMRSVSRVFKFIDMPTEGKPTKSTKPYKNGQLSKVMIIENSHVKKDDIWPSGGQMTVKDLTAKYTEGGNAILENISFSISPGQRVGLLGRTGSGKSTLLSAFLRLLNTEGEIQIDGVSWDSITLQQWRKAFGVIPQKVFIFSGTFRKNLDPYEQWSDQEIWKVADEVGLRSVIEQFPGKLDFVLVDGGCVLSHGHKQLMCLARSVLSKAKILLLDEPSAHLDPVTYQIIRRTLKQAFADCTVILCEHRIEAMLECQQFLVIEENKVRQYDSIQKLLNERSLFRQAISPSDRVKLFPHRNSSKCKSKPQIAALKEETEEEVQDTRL
Outline: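 Surface ΔF508-CFTR was measured as HRP chemiluminescence from an extracellular-loop-4 tag, expressed as percent activity between DMSO and a […] corrector control.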

CFTR ΔF508 = molecular target: T2, CFTR ΔF508 (Homo sapiens, UniProt P13569, DEL508-508); assay: Chronic TECC assay, primary bronchial epithelial cells of CF patients homozygous for CFTR ΔF508 (corrector, co-corrector and potentiator); conditions: chronic TECC; for % Activity at 3 μM (AUC**): test compound at 3 μM
T2 construct: bronchial epithelial cells isolated from CF patients homozygous for the CFTR ΔF508 mutation; McGill University; Asterand; University of North Carolina hAEC-CF; host or cells: primary human bronchial epithelial cells from CF patients homozygous for ΔF508, differentiated at air-liquid interface
T2 sequence (P13569 with tags, fused parts or gaps DEL508-508): as above
Outline: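 Primary bronchial epithelial cells from ΔF508-homozygous CF patients on collagen IV-coated Transwells were chronically treated with test compound plus corrector and potentiator, which were re-added before recording. Ieq was derived from PD and Rt in NaCl-Ringer, pH 7.4, at 37° C, with apical amiloride and bilateral forskolin, recorded every 2 min over 20 min. Ieq increase was normalized to controls, and EC50 was taken from per-well concentrations.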

ΔF508-CFTR [2] = molecular target: T1, ΔF508-CFTR; assay: CFTR cell surface levels using HRP-tagged ΔF508-CFTR expressing CFBE cells, in the presence of a co-corrector; conditions: HRP-tagged ΔF508-CFTR CFBE cells, in the presence of 3 μM co-corrector; for EC50: read-out: EC50
Outline: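 Chemiluminescent read-out of surface HRP (15 min, dark) after PBS washes. Activity is normalized as 100×(sample−DMSO)/(3 μM co-corrector alone−DMSO).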

[3] = AUC = full area under the curve upon forskolin stimulation
[4] = test compound at 1 μM, AUC = full area under the curve upon forskolin stimulation
[5] = Ieq = calculations based on the maximum current, read-out: EC50 (nM) (Ieq*)
[6] = AUC = full area under the curve upon forskolin stimulation, read-out: EC50 (nM) (AUC**)

Row | SMILES | % Activation (ΔF508-CFTR [1]) | EC50 (ΔF508-CFTR [1]) | % Activity at 3 μM (AUC**) (CFTR ΔF508; [3]) | % Activation (ΔF508-CFTR [2]) | EC50 (ΔF508-CFTR [2]) | % Activity at 1 μM (AUC**) (CFTR ΔF508; [4]) | EC50 (CFTR ΔF508; [5]) | % Activity at 1 μM (Ieq*) (CFTR ΔF508; test compound at 1 μM, Ieq = calculations based on the maximum current) | EC50 (CFTR ΔF508; [6])
1 | CN(C)S(=O)(=O)NC(=O)c1cc(N2CCC(N3CCOCC3)CC2)c2c(C3CCC3)nn(-c3ccc4c(c3)OC(F)(F)O4)c2n1 [Compound 623, 3-cyclobutyl-1-(2,2-difluoro-2H-1,3-benzodioxol-5-yl)-N-(dimethylsulfamoyl)-4-[4-(morpholin-4-yl)piperidin-1-yl]-1H-pyrazolo[3,4-b]pyridine-6-carboxamide] | 238.53% | 113 nM | 433.3333% | 424.77% | 55.6 nM |  |  |  | 
2 | O=C(NS(=O)(=O)NC1CCOCC1)c1cc(N2CCC(N3CCOCC3)CC2)c2c(C3CCC3)nn(-c3ccc(F)cc3)c2n1 [Compound 578, 3-cyclobutyl-1-(4-fluorophenyl)-4-[4-(morpholin-4-yl)piperidin-1-yl]-N-[(oxan-4-yl)sulfamoyl]-1H-pyrazolo[3,4-b]pyridine-6-carboxamide] | 309.25% | 152 nM |  | 462.3% | 108 nM | 936.6667% |  |  | 
3 | CC(C)c1nn(-c2cccc(N(C)C)c2)c2nc(C(=O)NS(C)(=O)=O)cc(-c3ccc(N(C)C4CCOCC4)cc3)c12 [Compound 96, 1-[3-(dimethylamino)phenyl]-N-(methanesulfonyl)-4-{4-[methyl(oxan-4-yl)amino]phenyl}-3-(propan-2-yl)-1H-pyrazolo[3,4-b]pyridine-6-carboxamide] | 406.6% | 367 nM |  | 707.5% | 473 nM |  | < 30 nM | 310% | 
4 | CC(C)N1CCN(c2cc(C(=O)NS(C)(=O)=O)nc3c2c(C2CCC2)nn3-c2ccccc2)CC1 [Compound 270, 3-cyclobutyl-N-(methanesulfonyl)-1-phenyl-4-[4-(propan-2-yl)piperazin-1-yl]-1H-pyrazolo[3,4-b]pyridine-6-carboxamide] | 161.5% | 1490 nM |  | 327.9% | 731 nM | 250% |  |  | 297 nM
5 | CS(=O)(=O)NC(=O)c1cc(N2CCC(OCC3CC3)CC2)c2c(C3CCC3)nn(-c3ccccc3)c2n1 [Compound 230, 3-cyclobutyl-4-[4-(cyclopropylmethoxy)piperidin-1-yl]-N-(methanesulfonyl)-1-phenyl-1H-pyrazolo[3,4-b]pyridine-6-carboxamide] | 243.75% | 406 nM |  | 440.1% | 180 nM | 265.44% |  |  | 27 nM
6 | CN(C)S(=O)(=O)NC(=O)c1cc(N2CCC(N3CCOCC3)CC2)c2c(C3CCC3)nn(-c3ccccc3)c2n1 [Compound 456, 3-cyclobutyl-N-(dimethylsulfamoyl)-4-[4-(morpholin-4-yl)piperidin-1-yl]-1-phenyl-1H-pyrazolo[3,4-b]pyridine-6-carboxamide] | 268.4% | 158 nM |  | 457.7% | 93.3 nM | 261.1621% |  |  | 
7 | CS(=O)(=O)NC(=O)c1cc(OCC2CCC(F)(F)C2)c2c(C3CCC3)nn(-c3ccccc3)c2n1 (stereo not shown) [Compound 238, 3-cyclobutyl-4-[(3,3-difluorocyclopentyl)methoxy]-N-(methanesulfonyl)-1-phenyl-1H-pyrazolo[3,4-b]pyridine-6-carboxamide] | 159.83% | 601 nM |  | 347.55% | 219 nM | 521.96% |  |  | 
8 | CN(C)S(=O)(=O)NC(=O)c1cc(N2CCC(N3CCC(F)CC3)CC2)c2c(C3CCC3)nn(-c3ccc(F)cc3)c2n1 [Compound 525, 3-cyclobutyl-N-(dimethylsulfamoyl)-4-(4-fluoro[1,4'-bipiperidin]-1'-yl)-1-(4-fluorophenyl)-1H-pyrazolo[3,4-b]pyridine-6-carboxamide] | 274.75% | 138 nM |  | 460.3% | 74 nM | 477.2665% |  |  | 50.3 nM
9 | COCC1CCN(c2cc(C(=O)NS(C)(=O)=O)nc3c2c(C2CCC2)nn3-c2ccnc(C3CCOCC3)c2)CC1 [Compound 473, 3-cyclobutyl-N-(methanesulfonyl)-4-[4-(methoxymethyl)piperidin-1-yl]-1-[2-(oxan-4-yl)pyridin-4-yl]-1H-pyrazolo[3,4-b]pyridine-6-carboxamide] | 166.3% | 70.8 nM |  | 370.7% | 43.9 nM | 243.3333% |  |  | 
10 | CC(C1CCN(c2cc(C(=O)NS(C)(=O)=O)nc3c2c(C2CCC2)nn3-c2ccc(F)cc2)CC1)N1CCOCC1 (stereo not shown) [Compound 445, 3-cyclobutyl-1-(4-fluorophenyl)-N-(methanesulfonyl)-4-{4-[1-(morpholin-4-yl)ethyl]piperidin-1-yl}-1H-pyrazolo[3,4-b]pyridine-6-carboxamide] | 393.1% | 111 nM |  | 671.25% | 59.1 nM | 406.6667% |  |  | 
11 | CN(C)S(=O)(=O)NC(=O)c1cc(N2CCC(N3CCC(C#N)CC3)CC2)c2c(C3CCC3)nn(-c3ccc(F)cc3)c2n1 [Compound 522, 4-(4-cyano[1,4'-bipiperidin]-1'-yl)-3-cyclobutyl-N-(dimethylsulfamoyl)-1-(4-fluorophenyl)-1H-pyrazolo[3,4-b]pyridine-6-carboxamide] | 317.9% | 114 nM |  | 525.66% | 79.8 nM | 666.6667% |  |  | 21.9 nM
12 | CCOC(=O)N1CCN(c2cc(C(=O)NS(C)(=O)=O)nc3c2c(C(C)C)nn3-c2ccc(F)cc2)CC1 [Compound 337, ethyl 4-[1-(4-fluorophenyl)-6-[(methanesulfonyl)carbamoyl]-3-(propan-2-yl)-1H-pyrazolo[3,4-b]pyridin-4-yl]piperazine-1-carboxylate] | 404.9% | 134 nM |  | 532.3% | 30.5 nM | 299.50% |  |  | 
13 | COCC1CCN(c2cc(C(=O)NS(=O)(=O)c3cnn(C)c3)nc3c2c(C2CCC2)nn3-c2ccccc2)CC1 [Compound 245, 3-cyclobutyl-4-[4-(methoxymethyl)piperidin-1-yl]-N-(1-methyl-1H-pyrazole-4-sulfonyl)-1-phenyl-1H-pyrazolo[3,4-b]pyridine-6-carboxamide] | 228% | 495 nM |  | 460% | 694 nM | 628.25% |  |  | 
14 | CC(C)N1CCN(C2CCN(c3cc(C(=O)NS(=O)(=O)N(C)C)nc4c3c(C3CCC3)nn4-c3ccc(F)cc3)CC2)CC1 [Compound 382, 3-cyclobutyl-N-(dimethylsulfamoyl)-1-(4-fluorophenyl)-4-{4-[4-(propan-2-yl)piperazin-1-yl]piperidin-1-yl}-1H-pyrazolo[3,4-b]pyridine-6-carboxamide] | 305.9% | 261 nM | 347% | 500.01% | 158 nM |  | 205 nM |  | 
15 | Cc1cc(N2CCN(c3cc(C(=O)NS(=O)(=O)N(C)C)nc4c3c(C3CCC3)nn4C3CCCCC3)CC2)ccn1 [Compound 535, 3-cyclobutyl-1-cyclohexyl-N-(dimethylsulfamoyl)-4-[4-(2-methylpyridin-4-yl)piperazin-1-yl]-1H-pyrazolo[3,4-b]pyridine-6-carboxamide] | 385.8% | 389 nM |  | 670.35% | 1250 nM | 335.0294% |  |  | 
16 | CC(C)c1nn(-c2ccc(F)cc2)c2nc(C(=O)NS(C)(=O)=O)cc(N3CCC(C(C)(C)O)CC3)c12 [Compound 304, 1-(4-fluorophenyl)-4-[4-(2-hydroxypropan-2-yl)piperidin-1-yl]-N-(methanesulfonyl)-3-(propan-2-yl)-1H-pyrazolo[3,4-b]pyridine-6-carboxamide] | 308.2% | 203 nM |  | 507% | 56.1 nM | 194.54% |  |  | 
17 | COCCS(=O)(=O)NC(=O)c1cc(-c2ccc(CN3CCOCC3)cc2)c2c(OC(C)C)nn(C3CCCCC3)c2n1 [Compound 405, 1-cyclohexyl-N-(2-methoxyethanesulfonyl)-4-{4-[(morpholin-4-yl)methyl]phenyl}-3-[(propan-2-yl)oxy]-1H-pyrazolo[3,4-b]pyridine-6-carboxamide] | 160.8% | 191 nM |  | 326.9% | 102 nM | 323.3333% |  |  | 
